Source: patent US11618746B2, “Inhibitors of APOL1 and methods of using same” (Vertex Pharmaceuticals Incorporated, priority 2018, dated 2023)

Each compound was assayed against T1, G1 APOL1 (Homo sapiens, UniProt O14791, I384M/S342G) (assay: Acute APOL1 Thallium Assay with inducible stable clones of HEK 293 cells). Conditions: HEK T-Rex tetracycline-inducible cells expressing G1 APOL1 (clone G1 DC3.25); inhibition of thallium flux rate.
T1 construct: expressed in transfected cells
T1 sequence (O14791 28-398 S342G/I384M): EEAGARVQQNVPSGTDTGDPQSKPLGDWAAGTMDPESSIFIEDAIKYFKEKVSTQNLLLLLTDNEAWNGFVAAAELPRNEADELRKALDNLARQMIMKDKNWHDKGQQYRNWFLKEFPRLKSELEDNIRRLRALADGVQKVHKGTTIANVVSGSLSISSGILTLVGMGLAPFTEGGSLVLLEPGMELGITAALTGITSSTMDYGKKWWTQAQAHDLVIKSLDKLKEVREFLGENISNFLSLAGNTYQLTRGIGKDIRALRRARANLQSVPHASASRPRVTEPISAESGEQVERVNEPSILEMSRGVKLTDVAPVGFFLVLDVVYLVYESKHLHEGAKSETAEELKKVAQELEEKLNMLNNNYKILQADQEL
Format: cell-based
Text: Acute APOL1 Thallium Assay with Inducible Stable Clones of HEK 293 Cells
Apolipoprotein L1 (APOL1) proteins form potassium-permeable cation pores in the plasma membrane. APOL1 risk variants (G1 and G2) induce greater potassium flux than G0 in HEK293 cells. This assay exploits the permeability of thallium (T1+) through ligand-gated potassium channels. The dye produces a bright fluorescent signal upon binding to T1+ conducted through potassium channels. The intensity of the T1+ signal is proportional to the number of potassium channels in the open state. Therefore, it provides a functional indication of the potassium channel activities. During the initial dye-loading step, the T1+ indicator dye as an acetoxymethyl (AM) ester enters the cells through passive diffusion. Cytoplasm esterases cleave the AM ester and relieve its active thallium-sensitive form. The cells are then stimulated with T1+. The increase of fluorescence in the assay represents the influx of T1+ into the cell specifically through the potassium channel (i.e. through APOL1 pores), providing a functional measurement of potassium channel/pore activity. The Thallium assay is conducted with cells expressing G1 APOL1.
APOL1 Cell Line (HEK T-Rex Stable Inducible Cell Line) • HEK T-Rex System • Tetracycline (Tet) inducible mammalian expression system. • Stably express the Tet repressor to regulate transcription. • Expression under the full-length CMV promoter. • APOL1 stable inducible cell line Clone used: G1 DC3.25
Tissue Culture Media • Cell Culture Medium • DMEM +10% FBS +P/S +5 μg/mL blasticidin+1 μg/mL puromycin. • 500 mL DMEM +55 mL FBS +5 mL P/S +280 μL blasticidin S HCl (10 mg/mL)+56 μL puromycin (10 mg/mL). • Cell Assay Medium • DMEM with 2% FBS+pen strep.
Instruments and Equipment • Nuaire cell culture hood, Cat. No. 540-600 • 37° C./5% CO2 incubator link to robotic arm, Liconic: STX110 • Molecular Devices FLIPR^Tetra High throughput cellular screening system, Cat. No. FT0324, Molecular Devices • ThermoFisher MultiDrop 384, Cat. No. 5840300 • Biotek Microfill, Cat. No. ASF1000A-4145 • BioRad TC10 cell counter, Cat. No. 145-0010 Assay Procedures
Cells Scaled Up from Frozen Vials • APOL1 G1 3.25 (HEK293 T-Rex) frozen vials: 5 million cells per vial • Step 1, Day 1: Defrost frozen vial into T-225. • Step 2, Day 5: (when 85% confluent): Split one T-225 at 3×10^6 cells per flask. • Step 3, Day 8: Splits cells to set up for the assay plates as described below.
T-Rex APOL1 HEK cells are split twice per week to keep the confluence state below 85% of the culture flask surface area. Cells can be kept until passage 25. • Cell Culture Medium • DMEM high glucose +10% FBS, +P/S, +5 μg/mL blasticidin, +1 μg/mL puromycin. • 500 mL DMEM, +55 mL FBS, +5 mL P/S, +280 μL blasicidin 10 mg/mL, +56 μL Puromycin 10 mg/mL. • Assay Media • Opti-MEM reduced serum medium from Invitrogen.
Preparation of Cell Assay Plates • Culture medium is removed from the x cm^2 T-flask by aspiration. • The cell monolayer is rinsed with PBS 1× at room temperature. PBS is removed by aspiration. • Cells are trypsinized using Trypsin. • The flasks are incubated at room temperature for 2-3 minutes. • Complete DMEM medium is then added. Cell suspension is then transferred to a 50 mL Falcon polypropylene tube. • Cells are then counted using a Biorad TC10 cell counter and the required amount of cells are centrifuged at 1200 RPM for 5 minutes. Required amount is 1.3×10^6 cells/mL APOL1 T-Rex HEK cells. • The pellet is suspended in the assay medium. • Using the MultiDrop, add 20 μL to each well (corresponds to 26000 cells total per well) of a 384-well black, transparent, flat bottom Poly-D coated plate. • Tetracycline as prepared in the following section is added to the cells before plating to induce APOL1 expression. • Plates are left at room temperature for 20 to 30 minutes before incubation at 37° C. and 5% CO2. […]
COc1ccc(-c2[nH]c3ccccc3c2CCC(=O)N[C@@H]2C(=O)NC[C@H]2O)cc1 [Compound 121] gave an IC50 of less than 250 nM.
For O=C(CCc1c(-c2ccc(F)cc2)[nH]c2c(F)cc(F)cc12)N[C@H]1C[C@H](CO)NC1=O [Compound 8], the IC50 was greater than 1000 nM.
O=C(CCc1c(-c2ccc(Cl)c(F)c2)[nH]c2ccccc12)N[C@@H]1C(=O)NC[C@H]1O [Compound 120] was tested, and the IC50 was less than 250 nM.
In the case of O=C(CCc1c(-c2ccc(F)cc2)[nH]c2ccc(C(F)(F)F)cc12)N[C@@H]1C(=O)NC[C@H]1O [Compound 108, 3-[2-(4-fluorophenyl)-5-(trifluoromethyl)-1H-indol-3-yl]-N-[(3S,4R)-4-hydroxy-2-oxo-pyrrolidin-3-yl]propanamide], the IC50 is reported as less than 250 nM.
O=C(CCc1c(-c2ccccc2)[nH]c2c(Br)cccc12)N[C@@H]1C(=O)NC[C@H]1O [Compound 70] was tested, and the IC50 was less than 250 nM.
In the case of O=C(CCc1c(-c2ccc(OC(F)F)cc2)[nH]c2c(F)cc(F)cc12)N[C@H]1CCNC1=O [Compound 21], the IC50 is reported as less than 250 nM.
Cc1ccc(-c2[nH]c3ccccc3c2CCC(=O)N[C@@H]2C(=O)NC[C@H]2O)cc1F [Compound 126] showed an IC50 of less than 250 nM.
O=C(CCc1c(-c2ccc(F)cc2)[nH]c2ccccc12)N[C@@H]1C(=O)NC[C@H]1O [Compound 87, 3-[2-(4-fluorophenyl)-1H-indol-3-yl]-N-[(3S,4R)-4-hydroxy-2-oxo-pyrrolidin-3-yl]propanamide] gave an IC50 of less than 250 nM.
O=C(CCc1c(-c2ccc(F)c(F)c2)[nH]c2ccccc12)N[C@@H]1C(=O)NC[C@H]1O [Compound 129, 3-[2-(3,4-difluorophenyl)-1H-indol-3-yl]-N-[(3S,4R)-4-hydroxy-2-oxo-pyrrolidin-3-yl]propanamide] was tested, and the IC50 was less than 250 nM.
N#Cc1cc(F)cc2c(CCC(=O)N[C@@H]3C(=O)NC[C@H]3O)c(-c3ccc(F)cc3)[nH]c12 [Compound 42] was tested, and the IC50 was less than 250 nM.
In the case of O=C(CCc1c(-c2ccc(F)c(F)c2)[nH]c2c(F)cc(F)cc12)N[C@@H]1C(=O)NC[C@H]1O [Compound 105], the IC50 is reported as less than 250 nM.
For Cc1ccc(-c2[nH]c3ccccc3c2CCC(=O)N[C@@H]2C(=O)NC[C@H]2O)c(F)c1 [Compound 122], the IC50 was less than 250 nM.
For O=C(CCc1c(-c2ccccc2)[nH]c2c(F)c(F)c(F)cc12)N[C@@H]1C(=O)NC[C@H]1O [Compound 80], the IC50 was less than 250 nM.
In the case of O=C(CCc1c(-c2ccc(C(F)(F)F)cc2)[nH]c2ccccc12)N[C@@H]1C(=O)NC[C@H]1O [Compound 123], the IC50 is reported as less than 250 nM.
O=C(CCc1c(-c2ccccc2)[nH]c2cccc(F)c12)N[C@@H]1C(=O)NC[C@H]1O [Compound 114, 3-(4-fluoro-2-phenyl-1H-indol-3-yl)-N-[(3S,4R)-4-hydroxy-2-oxo-pyrrolidin-3-yl]propanamide] showed an IC50 of less than 250 nM.
O=C(CCc1c(-c2ccccc2)[nH]c2ccc(Cl)cc12)N[C@@H]1C(=O)NC[C@H]1O [Compound 44, 3-(5-chloro-2-phenyl-1H-indol-3-yl)-N-[(3S,4R)-4-hydroxy-2-oxo-pyrrolidin-3-yl]propanamide] showed an IC50 of less than 250 nM.
Compound O=C(CCc1c(-c2cccc(F)c2)[nH]c2c(F)cc(F)cc12)N[C@@H]1C(=O)NC[C@H]1O [Compound 103] has an IC50 of less than 250 nM.
O=C(CCc1c(-c2cc(F)cc(F)c2)[nH]c2ccccc12)N[C@@H]1C(=O)NC[C@H]1O [Compound 127, 3-[2-(3,5-difluorophenyl)-1H-indol-3-yl]-N-[(3S,4R)-4-hydroxy-2-oxo-pyrrolidin-3-yl]propanamide] was tested, and the IC50 was 250 to 1000 nM.
With Cc1cc(-c2[nH]c3ccccc3c2CCC(=O)N[C@@H]2C(=O)NC[C@H]2O)ccc1F [Compound 125] the IC50 was less than 250 nM.
For O=C(CCc1c(-c2ccc(F)cc2)[nH]c2c(F)cc(F)cc12)N[C@@H]1CCNC1=O [Compound 13], the IC50 was 250 to 1000 nM.
For O=C(CCc1c(-c2ccccc2)[nH]c2c(C(F)(F)F)cccc12)N[C@@H]1C(=O)NC[C@H]1O [Compound 112, N-[(3S,4R)-4-hydroxy-2-oxo-pyrrolidin-3-yl]-3-[2-phenyl-7-(trifluoromethyl)-1H-indol-3-yl]propanamide], the IC50 was 250 to 1000 nM.
Compound O=C(CCc1c(-c2ccc(OC(F)(F)F)cc2)[nH]c2ccccc12)N[C@@H]1C(=O)NC[C@H]1O [Compound 118] has an IC50 of less than 250 nM.
O=C(CCc1c(-c2cc(F)cc(F)c2)[nH]c2c(F)cc(F)cc12)N[C@@H]1C(=O)NC[C@H]1O [Compound 104] was tested, and the IC50 was less than 250 nM.
Compound O=C(CCc1c(-c2ccccc2)[nH]c2cc(F)c(F)cc12)N[C@@H]1C(=O)NC[C@H]1O [Compound 82] has an IC50 of less than 250 nM.
Work on O=C(CCc1c(-c2ccc(F)cc2)[nH]c2ccc(F)cc12)N[C@@H]1CCNC1=O [Compound 49] yielded an IC50 of 250 to 1000 nM.
N#Cc1ccc(-c2[nH]c3c(F)cc(F)cc3c2CCC(=O)N[C@H]2CCNC2=O)cc1 [Compound 20, 3-[2-(4-cyanophenyl)-5,7-difluoro-1H-indol-3-yl]-N-[(3S)-2-oxopyrrolidin-3-yl]propanamide] was tested, and the IC50 was less than 250 nM.
With O=C(CCc1c(-c2ccc(F)cc2)[nH]c2c(F)cc(F)cc12)N[C@H]1CCNC1=O [Compound 3, 3-[5,7-difluoro-2-(4-fluorophenyl)-1H-indol-3-yl]-N-[(3S)-2-oxopyrrolidin-3-yl]propanamide] the IC50 was less than 250 nM.
Compound CN(C(=O)CCc1c(-c2ccc(F)cc2)[nH]c2ccc(F)cc12)C1CCNC1=O (stereo not drawn) [Compound 50] has an IC50 of 250 to 1000 nM.
O=C(CCc1c(-c2ccc(F)cc2)[nH]c2ccc(F)cc12)N[C@@H]1C(=O)NC[C@H]1O [Compound 46] showed an IC50 of less than 250 nM.
For O=C(CCc1c(-c2ccc(F)cc2)[nH]c2c(F)cccc12)N[C@@H]1C(=O)NC[C@H]1O [Compound 76], the IC50 was less than 250 nM.
Work on O=C(CCc1c(-c2ccc(F)cc2)[nH]c2c(Cl)cccc12)N[C@@H]1C(=O)NC[C@H]1O [Compound 73] yielded an IC50 of less than 250 nM.
N#Cc1cc(F)c2[nH]c(-c3ccc(F)cc3)c(CCC(=O)N[C@H]3CCNC3=O)c2c1 [Compound 28] showed an IC50 greater than 1000 nM.
For O=C(CCc1c(-c2ccc(F)cc2)[nH]c2c(Cl)cccc12)N[C@H]1CCNC1=O [Compound 72], the IC50 was less than 250 nM.
For O=C(CCc1c(-c2ccc(F)cc2)[nH]c2c(F)cc(Br)cc12)N[C@H]1CCNC1=O [Compound 27], the IC50 was less than 250 nM.
Compound CC1(NC(=O)CCc2c(-c3ccc(F)cc3)[nH]c3c(F)cc(F)cc23)CCNC1=O (racemic) [Compound 14] has an IC50 of 250 to 1000 nM.
For Cc1ccc(-c2[nH]c3ccccc3c2CCC(=O)N[C@@H]2C(=O)NC[C@H]2O)cc1 [Compound 124], the IC50 was less than 250 nM.
Work on O=C(CCc1c(-c2ccc(F)cc2)[nH]c2c(F)cccc12)N[C@H]1CCNC1=O [Compound 75] yielded an IC50 of less than 250 nM.
Cc1cc(F)cc2c(CCC(=O)N[C@@H]3C(=O)NC[C@H]3O)c(-c3ccc(F)cc3)[nH]c12 [Compound 37] was tested, and the IC50 was less than 250 nM.
In the case of COc1cc(F)cc2c(CCC(=O)N[C@@H]3C(=O)NC[C@H]3O)c(-c3ccc(F)cc3)[nH]c12 [Compound 40], the IC50 is reported as less than 250 nM.
